Patent publication US20230210834A1, “RNA METHYLTRANSFERASE INHIBITOR, SCREENING METHOD THEREFOR, ANTI-CANCER AGENT EFFICACY ASSESSMENT MARKER, AND KIT FOR EFFECTIVELY PREDICTING FTSJ1 INHIBITOR” (National University Corporation Okayama University, priority 2019, published 2023)

Tests used:
YAP/TAZ = test: Screening: YAP/TAZ activity reporter (8xGTIIC plasmid) assay in NUGC3 cells (luminescence % of DMSO); type: cell-based, human; conditions: NUGC3 cells, luminescence relative to DMSO
FTSJ1 = target: T1, FTSJ1 (Homo sapiens, UniProt Q9UET6); test: Screening test: FLAG-FTSJ1 transmethylation of total RNA, SAM to SAH conversion measured with MTase-Glo luminescence; type: biochemical; conditions: 10 ng/reaction FLAG-FTSJ1, 1,000 ng/reaction total RNA, different concentrations; FIG. 3B
T1 construct: made in house; host or cells: HEK293 cells stably expressing FLAG-tagged FTSJ1
T1 sequence (Q9UET6 1-329): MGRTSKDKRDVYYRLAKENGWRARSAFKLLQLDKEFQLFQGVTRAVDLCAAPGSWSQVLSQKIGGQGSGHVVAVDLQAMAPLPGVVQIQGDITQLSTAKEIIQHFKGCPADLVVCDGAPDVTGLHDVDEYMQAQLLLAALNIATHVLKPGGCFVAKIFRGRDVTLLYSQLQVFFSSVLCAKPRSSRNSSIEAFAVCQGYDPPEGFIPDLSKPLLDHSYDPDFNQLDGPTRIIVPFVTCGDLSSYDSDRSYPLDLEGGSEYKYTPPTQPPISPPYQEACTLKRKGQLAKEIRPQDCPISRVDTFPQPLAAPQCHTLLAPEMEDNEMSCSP
Procedure: HEK293 human embryonic kidney cells that constantly express FLAG-tagged FTSJ1 were produced, and from its cell lysate, FLAG-FTSJ1 was separated by adsorption using an anti-FLAG M2 antibody affinity gel (Sigma-Aldrich Co. LLC, catalog number: A2220-10ML), and eluted with FLAG peptide (Sigma-Aldrich Co. LLC, catalog number: F3290-25MG). After measuring the protein concentration in the eluate, serial dilutions were performed within the range of 0 to 20 ng/reaction to obtain enzyme dilutions of 12 different concentrations. Further, the total RNA was extracted from HEK293-FTSJ1-KO cells, in which FTSJ1 was knocked out, using TRIzol Reagent (Thermo Fisher Scientific Inc., catalog number: 15596018). […] The conversion reaction from SAM (s-adenosyl methionine) to SAH (s-adenosyl homocysteine), which occurred when FLAG-FTSJ1 in each dilution methylated 1,000 ng/reaction of the total RNA, was measured as a luciferase luminescence value using MTase-Glo Reagent in the assay kit. Taking the luminescence value at the time when FLAG-FTSJ1 was 0 ng as a background value, a graph was drawn using the numerical values obtained by subtracting the background value from the luminescence value at each dilution step. […]

In the case of `CC(C)c1cc(C(C)C)c(S(=O)(=O)CC2CC(C)(C)CC(C)(C)C2)c(C(C)C)c1` [PVZF2001], the “8×GTIIC” value (YAP/TAZ; 5 μM) is reported as 40.38%, the “8×GTIIC” value (YAP/TAZ; 10 μM) is reported as 20.02% and the “inhibitory effect of transmethylation by FTSJ1 (luminescence value)” value (FTSJ1) is reported as “a decrease in the luminescence value was observed in a concentration-dependent manner”.
